Assays:
Test in all cases: relative viability (nuclei count vs DMSO), 5 days (fraction); higher = more cells survive
[1] = compound: O=S(=O)(c1ccccc1)N(CC(F)(F)F)c1ccc(C(O)(C(F)(F)F)C(F)(F)F)cc1 + C[C@@H](Oc1cc(-c2cnn(C3CCNCC3)c2)cnc1N)c1c(Cl)ccc(F)c1Cl [Crizotinib] (partner 1 µM)
Outline: (§1)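 Five library-drug doses in √10 steps were combined with a fixed anchor-drug dose, or a single drug was given alone, by pin tool to lung cancer cell lines in 1536-well plates the day after seeding. Nuclei were stained and counted after 5 days. Relative viability is the nuclei count in treated wells over that in vehicle wells, taken as the median of duplicate plates.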

[2] = compound: C1=CC2=C(C=CC(=C2)C=C3C(=O)NC(=NCC4=CC=CS4)S3)N=C1 [RO-3306] + C[C@]1(O)C[C@@H](c2nc(-c3ccc4ccc(-c5ccccc5)nc4c3)c3c(N)nccn32)C1 [Linsitinib] (partner 1 µM)
Outline: as §1

[3] = compound: O=S(=O)(c1ccccc1)N(CC(F)(F)F)c1ccc(C(O)(C(F)(F)F)C(F)(F)F)cc1 + CCNC(=O)c1noc(-c2cc(C(C)C)c(O)cc2O)c1-c1ccc(CN2CCOCC2)cc1 [Luminespib] (partner 0.01 µM)
Outline: as §1

[4] = compound: O=S(=O)(c1ccccc1)N(CC(F)(F)F)c1ccc(C(O)(C(F)(F)F)C(F)(F)F)cc1 + Nc1ncn([C@H]2C[C@H](O)[C@@H](CO)O2)c(=O)n1 [Decitabine] (partner 2 µM)
Outline: as §1

[5] = compound: O=S(=O)(c1ccccc1)N(CC(F)(F)F)c1ccc(C(O)(C(F)(F)F)C(F)(F)F)cc1 + Nc1nc2[nH]cc(CCc3ccc(C(=O)N[C@@H](CCC(=O)O)C(=O)O)cc3)c2c(=O)[nH]1 [Pemetrexed] (partner 0.2 µM)
Outline: as §1

With UMC-11 the relative viability ([1]; first compound 0.8 µM) was 0.585, the relative viability ([1]; first compound 2.53 µM) was 0.583 and the relative viability ([1]; first compound 8 µM) was 0.749. It also gave a relative viability ([2]; first compound 0.01 µM) of 0.998, a relative viability ([2]; first compound 0.03162 µM) of 0.783 and a relative viability ([2]; first compound 0.1 µM) of 1.08. It also gave a relative viability ([2]; first compound 0.3162 µM) of 1.08, a relative viability ([2]; first compound 1 µM) of 1.03 and a relative viability ([3]; first compound 0.8 µM) of 1.19. It also gave a relative viability ([3]; first compound 2.53 µM) of 1.13, a relative viability ([3]; first compound 8 µM) of 1.13 and a relative viability ([4]; first compound 0.8 µM) of 0.587. For the same cell line, the relative viability ([4]; first compound 2.53 µM) was 0.471, the relative viability ([4]; first compound 8 µM) was 0.681 and the relative viability ([5]; first compound 0.8 µM) was 0.786. It also gave a relative viability ([5]; first compound 2.53 µM) of 0.736 and a relative viability ([5]; first compound 8 µM) of 0.852.

Source: the supplement of paper PMC10307832
